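96-well plates; 48 h exposure; 5 concentrations. Endpoints by linear interpolation between flanking doses. Not reached: highest tested concentration assigned. TGI is the concentration that stops growth completely.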 A value given as a limit tells only on which side of the number the result lay.

This note sets out measurements from PubChem BioAssay (NCI).

Among the test systems are HL-60(TB) leukemia; COLO 205 colon; A549 NSCLC; MALME-3M melanoma; EKVX NSCLC; ACHN renal; LOX IMVI melanoma; SK-OV-3 ovarian; CAKI-1 renal; HT29 colon; SR leukemia; KM12 colon; SNB-19 CNS; SF-539 CNS; OVCAR-5 ovarian; BT-549 breast; PC-3 prostate; MDA-N.
Holding throughout (assay): NCI anticancer screen, dose series, 48 h

Consider `CCCc1c(C(=O)OCC)[nH]c(C(=O)CCC(=O)c2[nH]c(C(=O)OCC)c(CCC)c2C(=O)OCC)c1C(=O)OCC`, for which the TGI in the experiment with HL-60(TB) leukemia, in the experiment with COLO 205 colon, with A549 NSCLC, in the experiment with MALME-3M melanoma, with EKVX NSCLC and in the experiment on ACHN renal was greater than 100 µM each time. The TGI with LOX IMVI melanoma, in the experiment with SK-OV-3 ovarian, in the experiment with CAKI-1 renal, with HT29 colon, in the experiment with SR leukemia and in the experiment with KM12 colon was greater than 100 µM throughout. Also, the TGI with SNB-19 CNS, in the experiment on SF-539 CNS and with OVCAR-5 ovarian was greater than 100 µM in each case.
On to `N#CCc1nc(-c2cc3c(ccc4ccccc43)oc2=O)cs1`, for which the TGI in the experiment on HL-60(TB) leukemia is greater than 100 µM; in the experiment with BT-549 breast, 31.5 µM; in the experiment with COLO 205 colon, greater than 100 µM; in the experiment with A549 NSCLC, greater than 100 µM; with MALME-3M melanoma, greater than 100 µM; in the experiment on EKVX NSCLC it was greater than 100 µM. The TGI with ACHN renal is 79.1 µM; in the experiment on LOX IMVI melanoma, greater than 100 µM; with SK-OV-3 ovarian it was 77 µM; in the experiment with CAKI-1 renal, greater than 100 µM; in the experiment with HT29 colon, greater than 100 µM; in the experiment on KM12 colon it was greater than 100 µM. Besides, the TGI was 36.4 µM in the experiment with SNB-19 CNS, greater than 100 µM in the experiment on PC-3 prostate, 51.4 µM in the experiment on SF-539 CNS and greater than 100 µM with OVCAR-5 ovarian.
With `Cn1c(=O)cc(N2CCCC2)[nH]c1=O`, the TGI with HL-60(TB) leukemia, in the experiment on BT-549 breast, in the experiment with COLO 205 colon, in the experiment with A549 NSCLC, in the experiment with MALME-3M melanoma and in the experiment on EKVX NSCLC was greater than 100 µM each time. Besides, the TGI in the experiment with ACHN renal, in the experiment with LOX IMVI melanoma, in the experiment with CAKI-1 renal, in the experiment with HT29 colon, with SR leukemia and in the experiment with KM12 colon was greater than 100 µM in each case. In addition, the TGI in the experiment with SNB-19 CNS, in the experiment on PC-3 prostate, with SF-539 CNS and in the experiment with OVCAR-5 ovarian was greater than 100 µM throughout.
As to `CCOP(=O)(OCC)C(Nc1ccc(C(=O)O)cc1)c1ccc(C(Nc2ccc(C(=O)O)cc2)P(=O)(OCC)OCC)cc1` (centres undefined), the TGI with BT-549 breast, with COLO 205 colon, with A549 NSCLC, with MALME-3M melanoma, in the experiment with EKVX NSCLC and in the experiment on ACHN renal was greater than 100 µM throughout. Moreover, the TGI with LOX IMVI melanoma, with SK-OV-3 ovarian, with CAKI-1 renal, with HT29 colon, with KM12 colon and in the experiment with SNB-19 CNS was greater than 100 µM each time. Moreover, the TGI in the experiment with PC-3 prostate and with OVCAR-5 ovarian was greater than 100 µM throughout.
Consider `CCc1ccccc1NC(=O)C(=O)CC(=O)c1sc(Nc2ccccc2Cl)nc1C`, for which the TGI in the experiment with HL-60(TB) leukemia was greater than 100 µM; in the experiment on BT-549 breast, greater than 100 µM; in the experiment with COLO 205 colon, 52.3 µM; with A549 NSCLC, 80 µM; with EKVX NSCLC, greater than 100 µM; in the experiment with ACHN renal, greater than 100 µM. The TGI with LOX IMVI melanoma was 44 µM; in the experiment on SK-OV-3 ovarian, 63.3 µM; in the experiment on CAKI-1 renal it was greater than 100 µM; in the experiment on HT29 colon, greater than 100 µM; with KM12 colon, greater than 100 µM; in the experiment with MDA-N it was 94.4 µM. Further, the TGI in the experiment with SNB-19 CNS was greater than 100 µM; in the experiment on PC-3 prostate, greater than 100 µM; in the experiment with SF-539 CNS, 66.1 µM; in the experiment with OVCAR-5 ovarian, greater than 100 µM.
In the case of `CC1(O)Oc2ccc3ccccc3c2C=C1C(N)=O` (centres undefined), the TGI with HL-60(TB) leukemia, with COLO 205 colon, with EKVX NSCLC, with ACHN renal, in the experiment with LOX IMVI melanoma and with SK-OV-3 ovarian was greater than 100 µM each time. Further, the TGI with CAKI-1 renal, in the experiment with SR leukemia, with KM12 colon, in the experiment with SNB-19 CNS, in the experiment on PC-3 prostate and in the experiment on SF-539 CNS was greater than 100 µM each time.
In the case of `O=C(Nc1ccc(Cl)cc1)NS(=O)(=O)c1c(-c2ccccc2)oc2ccccc2c1=O`, the TGI with HL-60(TB) leukemia, in the experiment with COLO 205 colon, in the experiment on A549 NSCLC, with MALME-3M melanoma, in the experiment on EKVX NSCLC and with ACHN renal was greater than 100 µM throughout. For the same compound, the TGI in the experiment on LOX IMVI melanoma, with SK-OV-3 ovarian, in the experiment on CAKI-1 renal, in the experiment with HT29 colon, in the experiment with SR leukemia and in the experiment with KM12 colon was greater than 100 µM each time. Moreover, the TGI with MDA-N, with SNB-19 CNS, in the experiment on PC-3 prostate, in the experiment with SF-539 CNS and in the experiment on OVCAR-5 ovarian was greater than 100 µM in each case.
As for `O=C(/C=C/c1ccc2c(c1)OCO2)CC(=O)/C=C/c1ccc2c(c1)OCO2`, the TGI with HL-60(TB) leukemia, in the experiment on COLO 205 colon, with A549 NSCLC, with MALME-3M melanoma, in the experiment on EKVX NSCLC and in the experiment with ACHN renal was greater than 100 µM in each case. Moreover, the TGI with LOX IMVI melanoma was greater than 100 µM; in the experiment with SK-OV-3 ovarian it was greater than 100 µM; with CAKI-1 renal it was greater than 100 µM; with HT29 colon, greater than 100 µM; with SR leukemia it was 79.8 µM; in the experiment on KM12 colon, 10.8 µM. The TGI in the experiment with MDA-N, with SNB-19 CNS, in the experiment on PC-3 prostate, in the experiment on SF-539 CNS and in the experiment with OVCAR-5 ovarian was greater than 100 µM throughout.
Turning to `COCN1C(=O)[C@@H]2CCCN2C(=O)c2ccc([N+](=O)[O-])cc21`, the TGI in the experiment with HL-60(TB) leukemia, with BT-549 breast, in the experiment on COLO 205 colon, with A549 NSCLC, with EKVX NSCLC and with ACHN renal was greater than 100 µM each time. For the same compound, the TGI in the experiment on LOX IMVI melanoma, in the experiment on SK-OV-3 ovarian, in the experiment with CAKI-1 renal, with HT29 colon, in the experiment with SR leukemia and in the experiment with KM12 colon was greater than 100 µM in each case. Besides, the TGI with SNB-19 CNS, in the experiment with PC-3 prostate, with SF-539 CNS and with OVCAR-5 ovarian was greater than 100 µM throughout.
